What was measured:
[1] = system: Ear Edema Caused by Tetradecanoylphorbolacetate; assay: Inhibition of Ear Edema Caused by Tetradecanoylphorbolacetate (I), Table 1; type: in vivo, CF-1 Mice; details: i.p.
Excerpt: (§1) Such inflammatory agents typically include tetradecanoylphorbolacetate, arachidonic acid, xylene, capsaicin, oxazolone, carrageenan and the like. The reverse passive Arthus test offers another measure of the compound's utility in preventing an inflammatory response (Chang et al, Eur. J. Pharm. 69:155-164 (1981)). Test compounds are typically administered intraperitoneally or topically. For intraperitoneal administration, the test compound can be given in dimethyl sulfoxide or in 0.5% methylcellulose 30 minutes prior to administration of the irritant. For topical administration, the test compound can be dissolved in, for example, acetone, ethanol or dimethyl sulfoxide and applied about 15 minutes prior to application of the irritant. Results can be expressed as the percent decrease in swelling in the compound-treated animals as compared to control animals that receive only the irritant.
Inhibition of Ear Edema Caused by Tetradecanoylphorbolacetate (I)
CF-1 Mice, 25-30 g body weight, six animals per group, were used. Test compounds (compounds of Formula I where X is oxygen, R3, R4, A and B are hydrogen and Q is as indicated in Table 1) were administered intraperitoneally (100 mg/kg) or topically as follows. For intraperitoneal administration, the test compound was dissolved in dimethyl sulfoxide or 0.5% methylcellulose and 100 μl was injected 30 minutes prior to irritant (100 mg/kg, i.p.). For topical administration, the test compound was dissolved in either acetone, ethanol or dimethyl sulfoxide and 5 μl (100 μg) applied to the upper surface (1 cm^2) of the ear and an additional 5 μl (100 μg) applied to the lower surface (1 cm^2) of the ear fifteen minutes prior to application of the irritant. A solution of the irritant, tetradecanoylphorbolacetate, 200 μg/ml, was added to the surface of the ear, 5 μl added to the upper surface and 5 μl to the lower surface. After three hours, the thickness of the ear was measured to 0.01 mm by a micrometer with loose drag positioned at the lateral-most edge of the mid-point of the pinna. Data were calculated as the inhibition by the test compound of increased ear thickness compared to control animals receiving only the irritant.

[2] = system: Ear Edema Caused by Oxazolone; assay: Inhibition of Ear Edema Caused by Oxazolone (I), Table 5; type: in vivo, CF-1 Mice; details: 24 h
Excerpt: as §1
Inhibition of Ear Edema Caused by Oxazolone (I)
CF-1 Mice, 25-30 g body weight, six animals per group, were used. The mice were sensitized to the irritant two weeks prior to the test by dribbling 100 μl of a 3% solution of oxazolone in acetone onto the abdominal skin of the animal. Test compounds (compounds of Formula I where X is oxygen, R3, R4, A and B are hydrogen and Q is as indicated in Table 5) were administered intraperitoneally as follows. The test compound was dissolved in DMSO or 0.5% methylcellulose and 100 μl (100 mg/kg) was injected 30 minutes prior to irritant. The irritant, 3% oxazolone in acetone, was added to the surface of the ear, 5 μl added to the upper surface and 5 μl to the lower surface. After twenty four hours, the thickness of the ear was measured to 0.01 mm by a micrometer with loose drag positioned at the lateral-most edge of the mid-point of the pinna. Data were calculated as the inhibition by the test compound of increased ear thickness compared to control animals receiving only the irritant.

[3] = system: Ear Edema Caused By Tetradecanoylphorbol Acetate; assay: Inhibition of Ear Edema Caused by Tetradecanoylphorbol Acetate (II), Table 7; type: in vivo, CF-1 Mice; details: 3 h; for % Inhibition Intraperitoneal: i.p.
[4] = system: Ear Edema Caused by Arachidonic Acid; assay: Inhibition of Ear Edema Caused by Arachidonic Acid (II), Table 8; type: in vivo, CF-1 mice; details: i.p., sixty minutes
Procedure, shortened: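 CF-1 mice (25-30 g, six/group) dosed intraperitoneally with compound in DMSO or 0.5% methylcellulose 30 min before topical arachidonic acid (100 mg/mL in ethanol, both ear surfaces).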

[5] = system: Ear Edema Caused by Xylene; assay: Inhibition of Ear Edema Caused by Xylene (II), Table 9; type: in vivo, CF-1 mice; details: i.p., 2 h
Procedure, shortened: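 CF-1 mice (25-30 g, six per group) received compound i.p. in DMSO or 0.5% methylcellulose 30 min before xylene was applied to both ear surfaces. Ear thickness was measured by micrometer 2 h later. Values are percent inhibition of the increase in ear thickness versus irritant-only controls.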

[6] = system: Reverse Passive Artus Reaction; assay: Reverse Passive Artus Reaction (II), Table 11; type: in vivo, Male CD rats; details: inhibition of blueing, i.p.
Protocol: Reverse Passive Artus Reaction (II) Male CD rats weighing between 200 and 250 g were used. […] The animals were anesthetized inhalationally with isoflurane and then injected through the penile vein with 1 mL of a solution of 2.5 mg of Evan's blue dye and 5.0 mg of human serum albumin in 1 mL of saline. This treatment was followed immediately by intracutaneous injections of 0.03 mL of anti-human albumin diluted to contain 3.65 mg of antibody at 3 sites along the midline back. Anesthesia was terminated and after three hours, the animals were sacrificed. The skin was removed and the blue stained areas cut out. The skin patches were soaked overnight in stoppered tubes containing 1 mL of 1 N potassium hydroxide at 37° C. Then 9 mL of a mixture of five parts of a 0.6 N phosphoric acid and thirteen parts of acetone were added to the tubes. The tube contents were agitated and centrifuged, and the absorbance measured at 620 nm. The data were calculated as inhibition of blueing by test compound compared to control animals receiving only antigen and antibody.

[7] = system: Reverse Passive Artus Reaction; assay: Reverse Passive Artus Reaction (I), Table 6; type: in vivo, Male CD rats; details: inhibition of blueing
Excerpt: as §1
Reverse Passive Artus Reaction (I)
Male CD rats weighing between 200 and 250 g were used. Test compounds (compounds of Formula I where X is oxygen, R3, R4, A and B are hydrogen and Q is as indicated in Table 6) were dissolved in dimethyl sulfoxide and 200 μl of this solution (100 mg/kg) were injected intraperitoneally one hour before administration of the antigen. The animals were anesthetized inhalationally with isoflurane and then were injected through the penile vein with 1 ml of a solution of 2.5 mg of Evan's blue dye and 5.0 mg of human serum albumin in 1 ml of saline. This treatment was followed immediately by intracutaneous injections of 0.03 ml of anti-human albumin diluted to contain 3.65 mg of antibody at 3 sites along the midline back. Anesthesia was terminated and after three hours the animals were sacrificed. The skin was removed and the blue stained areas cut out. […] The tube contents were agitated and centrifuged, and the absorbance of the supernatant liquid was measured at 620 nm. The data were calculated as inhibition of blueing by test compound compared to control animals receiving only antigen and antibody.

[8] = system: Ear Edema Caused by Oxazolone; assay: Inhibition of Ear Edema Caused by Oxazolone (II), Table 10; type: in vivo, CF-1 mice; details: i.p., 24 h
[9] = system: Ear Edema Caused by Arachidonic Acid; assay: Inhibition of Ear Edema Caused by Arachidonic Acid (I), Table 2; type: in vivo, CF-1 Mice; details: i.p., 100 mg/kg; ear thickness at sixty minutes
Excerpt: as §1
Inhibition of Ear Edema Caused by Arachidonic Acid (I)
CF-1 Mice, 25-30 g body weight, six animals per group, were used. Test compounds (compounds of Formula I where X is oxygen, R3, R4, A and B are hydrogen and Q is as indicated in Table 2) were administered intraperitoneally (100 mg/kg) as follows. For intraperitoneal administration, test compound was dissolved in DMSO or 0.5% methylcellulose and 100 μl was injected 30 minutes prior to i.p. administration of 100 mg/kg of arachidonic acid. A solution of the irritant, arachidonic acid, 100 mg/ml in ethanol, was added to the surface of the ear, 5 μl added to the upper surface and 5 μl to the lower surface. After sixty minutes, the thickness of the ear was measured to 0.01 mm by a micrometer with loose drag positioned at the lateral-most edge of the mid-point of the pinna. Data were calculated as the percent inhibition by the test compound of increased ear thickness compared to control animals receiving only the irritant.

[10] = system: Ear Edema Caused by Xylene; assay: Inhibition of Ear Edema Caused by Xylene (I), Table 3; type: in vivo, CF-1 Mice; details: 2 h; for % Inhibition Intraperitoneal: i.p., 100 mg/kg, 30 min before irritant
Excerpt: as §1
Inhibition of Ear Edema Caused by Xylene (I)
CF-1 Mice, 25-30 g body weight, six animals per group, were used. Test compounds (compounds of Formula I where X is oxygen, R3, R4, A and B are hydrogen and Q is as indicated in Table 3) were administered intraperitoneally (100 mg/kg) or topically as follows. For intraperitoneal administration, the test compound was dissolved in DMSO or 0.5% methylcellulose and 100 μl was injected 30 minutes prior to irritant. For topical administration, test compound was dissolved in either acetone, ethanol or dimethyl sulfoxide and 5 μl (10 μg) applied to the upper surface (1 cm^2) of the ear and an additional 5 μl (10 μg) applied to the lower surface (1 cm^2) of the ear fifteen minutes prior to application of the irritant. The irritant, xylene, was added to the surface of the ear, 20 μl added to the upper surface and 20 μl to the lower surface. After two hours, the thickness of the ear was measured to 0.01 mm by a micrometer with loose drag positioned at the lateral-most edge of the mid-point of the pinna. Data were calculated as the inhibition by the test compound of increased ear thickness compared to that of control animals receiving only the irritant.

[11] = 100 mg/kg, 30 min before irritant, ear thickness at 3 h

Row | SMILES | % Inhibition Intraperitoneal ([3]; 10 mg/kg) [%] | % Inhibition Intraperitoneal ([4]; 10 mg/kg) [%] | % Inhibition ([5]; 10 mg/kg) [%] | % Inhibition Intraperitoneal [1, 11] [%] | % Inhibition Intraperitoneal ([3]; 30 mg/kg) [%] | % Inhibition Intraperitoneal ([3]; 100 mg/kg) [%] | % Inhibition Intraperitoneal ([4]; 30 mg/kg) [%] | % Inhibition Intraperitoneal ([4]; 100 mg/kg) [%] | % Inhibition ([5]; 30 mg/kg) [%] | further results
1 | C[C@@H]1C[C@H]2[C@@H]3CCC4=CC(=O)C=C[C@]4(C)[C@@]3(F)[C@@H](O)C[C@]2(C)[C@@]1(O)C(=O)CO [Dexamethasone, reference compound] | 50 | 12 | 34 |  |  |  |  |  |  | % Inhibition Intraperitoneal ([1]; Reference Standard, 10 mg/kg, 3 h): 50%; % Inhibition Intraperitoneal ([2]; Reference Standard at 10 mg/kg): 48%; % Inhibition Intraperitoneal ([6]; 10 mg/kg): 4%
2 | COc1cc2c(c(OC)c1OC)-c1ccc(OC)c(=O)cc1[C@@H](NC(C)=O)CC2 [Colchicine, reference compound] |  |  |  |  |  |  |  |  |  | % Inhibition Intraperitoneal ([7]; Reference Standard 1 mg/kg): 64%
3 | NCCCC[C@H](N)C(=O)O [L-Lysine] |  |  |  | 14 |  |  |  |  |  | 
4 | Cc1ccc2c(c1)C(COC(=O)N[C@@H](CC(C)C)C(=O)O)c1cc(C)ccc1-2 [NPC 15669, N-{[9H-(2,7-Dimethylfluoren-9-yl)methoxy]-carbonyl}-L-leucine] | 43 | 12 | 12 |  | 27 | 133 | 22 | 60 | 22 | % Inhibition ([5]; 100 mg/kg): 60%; % Inhibition Intraperitoneal ([8]; 10 mg/kg): -40%; % Inhibition Intraperitoneal ([8]; 30 mg/kg): 84%; % Inhibition Intraperitoneal ([8]; 100 mg/kg): 84%; % Inhibition Intraperitoneal ([6]; 100 mg/kg): 60%
5 | CN1C(C(=O)Nc2ccccn2)=C(O)c2ccccc2S1(=O)=O [Piroxicam, reference compound] | 7 | 56 | 53 | 40 | 14 | 40 | 77 | 86 | 49 | % Inhibition Intraperitoneal [9]: 86%; % Inhibition Intraperitoneal [10]: 74%; % Inhibition ([5]; 100 mg/kg): 74%
6 | O=C(N[C@@H](Cc1ccccc1)C(=O)O)OCC1c2ccccc2-c2ccccc21 [L-Phenylalanine, N-[(9H-Fluoren-9-ylmethoxy)carbonyl]-L-phenylalanine] |  |  |  | 78 |  |  |  |  |  | % Inhibition Intraperitoneal [9]: 70%; % Inhibition Intraperitoneal [10]: 49%; % Inhibition, topical ([10]; topical, 10 μg upper + 10 μg lower ear surface, 15 min before irritant): 50%; % Inhibition Intraperitoneal ([2]; i.p., 100 mg/kg, 30 min before irritant, sensitized mice): 62%; % Inhibition Intraperitoneal ([7]; i.p., 100 mg/kg, one hour before antigen): 47%
7 | CC(C)(C)[C@H](NC(=O)OCC1c2ccccc2-c2ccccc21)C(=O)O [NPC 15573, N-[(9H-Fluoren-9-ylmethoxy)carbonyl]-L-tert-leucine] | 39 | 27 | 23 |  | 52 | 75 | 32 | 42 | 17 | % Inhibition, topical ([3]; dose 10 (mg/kg)): 20%; % Inhibition, topical ([3]; dose 30 (mg/kg)): 31%; % Inhibition, topical ([3]; dose 100 (mg/kg)): 38%; % Inhibition Intraperitoneal ([8]; 30 mg/kg): 28%; % Inhibition Intraperitoneal ([8]; 100 mg/kg): 48%; % Inhibition Intraperitoneal ([6]; 100 mg/kg): 50%
